Experiment [1] concerns Fas (CD95) of SKBR3 cells. Description: Fas (CD95) expression by flow cytometry, SKBR3. The format is cell-based, human. The following applies: tamoxifen 10 μg/ml. Here is the method: Flow cytometry was used to assess Fas expression and cell cycle. Cells were reacted sequentially with mAb to Fas (CD95) and then with a fluorescenated goat anti-mouse antibody, according to the recommendations of the manufacturer. Percent fluorescent cells and fluorescence intensity was determined using an Epics Elite cytofluorograph (Coulter Corp.). All samples were compared to their isotype-matched controls. Analysis of cell cycle was performed using propidium iodide on a Coulter EPICS Elite flow cytometer equipped with a 488 nm, 15 mW, air-cooled Argon laser. […] Optical laser alignment calibration of the flow cytometer was performed using Coulter's DNA-Check EPICS alignment fluorosphere beads with coefficient of variations routinely less than 2%. PI fluorescent light emission was collected through a 610 nm, long-pass transmission filter. PI signal was measured in linear mode and extended analysis of DNA content was performed using ModFit LT program, as described above. Data are presented as the percentage of cells in G1-G0, S, and G2-M.
(In general: Flow cytometry measures light scatter and fluorescence of single cells or particles in a stream.)

The subject of experiment [2] is caspase-8. In words: Caspase-8 activity, SKBR3. The format is cell-based, human. The following applies: Factor C 5% v/v, tamoxifen 10 μg/ml. As to the method:
(§1) Caspase-3 and caspase-8 activities were determined using a calorimetric assay kit (R&D Systems, Inc., Minneapolis, Minn.). Assays were conducted according to the instructions of the manufacturer. Protein kinase C, Prote3in kinase c alpha and delta levels were determined by immunoprecipitation and Western blotting, as previously described. Hofmeister, et al., “Clustered CD20 induced apoptosis: src-family kinase, the proximal regulator of tyrosine phosphorylation, calcium influx, and caspase 3-dependent apoptosis”, Blood Cells Mol Dis, 26:133-43, 2000.

The subject of the next experiment is SKBR3 cells. Description: Tumor proliferation assay (MTS), SKBR3. The format is cell-based, human. The settings on record: tamoxifen 10 μg/ml; for inhibition at 10 µg/mL: Homo sapiens, SKBR3, Factor C 5% v/v, read-out: Fractional Inhibition. Here is the method: MTS was added for the final 5 hours of culture as recommended by the manufacturer (CeiTiter 96 AQueous, Non-Radioactive Cell Proliferation Assay; Promega, Madison, Wis.), and the absorbence was read in a DigiScan reader (ASYS Hitech, Austria) at A492 nm. Samples were evaluated in triplicate. Tumor cells cultured in maintenance media with no addition and the maintenance media alone were used as controls. Fractional inhibition was determined by the formula set forth above.
The combined effects of the drugs and supernatants were analyzed by the median effect method of Chou and Talalay using CalcuSyn software (see above). […] According to this method, “synergy” is indicated by a Cl of less than 1, “addition” by a Cl equal to 1, and “antagonism” by a Cl greater than 1. A Cl of less than 0.3 is considered to represent “strong synergism”, and a Cl greater than 3.3 is considered to represent “strong antagonism”.

Experiment [3] has as its system caspase-3. In words: Caspase-3 activity, SKBR3. The following applies: Factor C 5% v/v, tamoxifen 10 μg/ml. It is filed as cell-based, human. As to the method:
as §1

A further experiment deals with LS513 cells. In words: Proliferation assay with median effect analysis, LS513. The format is cell-based. The following applies: Homo sapiens, LS-513, topotecan 1 μg/ml, supernatant 25% v/v, antibodies 10 μg/ml, read-out: Fractional Inhibition. As to the method: (§2) MTS was added for the final 5 hours of culture as recommended by the manufacturer (CelTiter, 96 AQueous Non-Radioactive Cell Proliferation Assay, Promega, Madison, Wis.), and the absorbence was read in a DigiScan reader (ASYS Hitech, Austria) at A492 nm. Samples were evaluated in triplicate. Tumor cells cultured in maintenance media with no addition and the maintenance media alone were used as controls. Fractional inhibition was determined by the following formula: [formula]
According to this method, “synergy” is indicated by a Cl of less than 1, “addition” by a Cl equal to 1, and “antagonism” by a Cl greater than 1. A Cl of less than 0.3 is considered to represent “strong synergism”, and a Cl greater than 3.3 is considered to represent “strong antagonism”.

Experiment [4] deals with T1, topoisomerase I-DNA complexes (Homo sapiens, UniProt P11387).
T1 construct: endogenous in cells; host or cells: LS513
T1 sequence (P11387 1-765): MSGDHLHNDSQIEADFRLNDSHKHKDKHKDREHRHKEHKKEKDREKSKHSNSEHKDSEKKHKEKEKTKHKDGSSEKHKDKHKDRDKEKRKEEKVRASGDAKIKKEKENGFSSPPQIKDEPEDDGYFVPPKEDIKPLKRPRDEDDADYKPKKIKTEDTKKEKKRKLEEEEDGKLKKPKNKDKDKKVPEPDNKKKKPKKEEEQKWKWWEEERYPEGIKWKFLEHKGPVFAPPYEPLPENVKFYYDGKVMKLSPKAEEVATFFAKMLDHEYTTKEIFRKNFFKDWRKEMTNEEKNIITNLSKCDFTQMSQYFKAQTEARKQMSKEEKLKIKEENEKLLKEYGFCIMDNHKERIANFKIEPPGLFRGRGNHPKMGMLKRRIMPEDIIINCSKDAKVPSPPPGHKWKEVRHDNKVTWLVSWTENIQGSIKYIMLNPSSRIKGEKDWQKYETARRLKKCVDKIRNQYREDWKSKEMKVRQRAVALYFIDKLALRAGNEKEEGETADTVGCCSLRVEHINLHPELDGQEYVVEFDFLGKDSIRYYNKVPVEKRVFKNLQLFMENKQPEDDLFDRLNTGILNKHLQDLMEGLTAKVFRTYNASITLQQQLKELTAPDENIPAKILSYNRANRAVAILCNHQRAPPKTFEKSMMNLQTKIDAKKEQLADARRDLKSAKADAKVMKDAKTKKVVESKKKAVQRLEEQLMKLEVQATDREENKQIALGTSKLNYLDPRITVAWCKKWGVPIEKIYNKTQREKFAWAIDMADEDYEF
In words: Topoisomerase I-DNA complexes in LS513 cells. The settings on record: factor 25%, 50 μM irinotecan. The format is cell-based. Here is the method: Three different concentrations of DNA (recovered from the DNA peak fractions of each CsCI gradient) were spotted onto the membrane.
The blot was placed on a phosphorimager and signal strengths from the 2 μg slots were quantified. Based upon comparison to a known standard of purified topoisomerase I on the same blot, the signals are expressed as ng or topoisomerase I per ml of DNA=no additions (i.e., untreated). The data are quantified in Table 22 and FIG. 35.

The test system of experiment [5] is caspase-8. Description: Caspase-8 activity, colorimetric, colorectal cancer cells. It is filed as cell-based, human. As to the method: (§3) Caspase-3 and caspase-8 activities were determined using a calorimetric assay kit (R&D Systems, Inc., Minneapolis, Minn.). Assays were conducted according to the instructions of the manufacturer.
Experiment [6] relates to FasR (CD95) of SW480 cells. In words: FasR (CD95) expression by flow cytometry, SW480. The format is cell-based, human. Here is the method:
(§4) Flow cytometry was used to assess FasR expression and cell cycle. Analysis of cell cycle was performed using propidium iodide on a Coulter EPICS Elite flow cytometer (Coulter Corporation) equipped with a 488 nm, 15 mW, air-cooled Argon laser. […] Optical laser alignment calibration of the flow cytometer was performed using Coulter's DNA-Check EPICS alignment fluorosphere beads with coefficient of variations routinely less than 2%. PI fluorescent light emission was collected through a 610 nm, long-pass transmission filter. PI signal was measured in linear mode and extended analysis of DNA content was performed using the ModFit LT program (Verity Software House, Inc., Topsham, Me.). Data are presented as the percentage of cells in G1-G0, S and G2-M.

The subject of experiment [7] is caspase-3. In words: Caspase-3 activity, colorimetric, colorectal cancer cells. It is filed as cell-based, human. As to the method:
as §3

Experiment [8] deals with FasR (CD95) of LS513 cells. In words: FasR (CD95) expression by flow cytometry, LS513. It is filed as cell-based, human. Here is the method:
as §4

For experiment [9], the target named is soluble Fas ligand (sFasL) in supernatants of anti-CD3/IL-2 activated-expanded T cells (human) (UniProt P48023). In words: cell-based or functional assay.
In a further experiment the test system is SW480 cells. Description: Proliferation assay (MTS), SW480. It is filed as cell-based, human. The settings on record: Table 13; supernatant 25% v/v; IFN-γ, TNF-α 1,000 U/ml; antibodies 10 μg/ml. Here is the method: as §2, with “Unstimulated and stimulated supernatants, as well as the expansion media, were added at a range of volumes to SW480, LS174T, or Jurkat cells or cultured in their maintenance media in 24-well plates for 96 hours. MTS” for “MTS”

The values that follow come from patent US20020106375A1, “Non-cytolytic soluble factor from activated-expanded CD4 cells” (priority 2000, published 2002).

Counter-ions that a name gives are not always drawn. Like-named read-outs stand apart in the source and are kept apart here.

Sequence of soluble Fas ligand (sFasL) in supernatants of anti-CD3/IL-2 activated-expanded T cells (human) (P48023 130-281 limits assumed): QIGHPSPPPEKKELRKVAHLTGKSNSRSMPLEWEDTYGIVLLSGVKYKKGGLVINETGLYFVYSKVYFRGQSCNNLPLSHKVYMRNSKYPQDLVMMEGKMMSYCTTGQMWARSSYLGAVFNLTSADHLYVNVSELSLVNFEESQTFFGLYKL

As usually defined, the inhibition is the percentage by which the read-out fell short of the control. As to `CC/C(=C(\c1ccccc1)c1ccc(OCCN(C)C)cc1)c1ccccc1` [Tamoxifen], the CD95 in experiment [1] (Table 27, SKBR3 cells) is given as 11. Besides, the “CD 95 Cells” value in experiment [1] (Table 29, SKBR3, CD95 mean cell fluorescence, Factor C 5% v/v) came to 1.8. In the experiment on caspase-8 [2], this molecule gave a Caspase-8 of 0.01. The inhibition at 10 µg/mL came out at 32% in the experiment on SKBR3 cells (SK-BR-3, Table 28, blocking antibody 50 μg/ml) and 44.5% in the experiment on SKBR3 cells (SK-BR-3, Table 29). Moreover, the F1 in the experiment with SKBR3 cells (Table 27, SKBR3 cells) is 0.28. The molecule also displayed a Caspase-3 in the experiment on caspase-3 [3] of 0.12.
With `CC[C@@]1(O)C(=O)OCc2c1cc1n(c2=O)Cc2cc3c(CN(C)C)c(O)ccc3nc2-1` [TPT, Topotecan], the inhibition at 1 µg/mL in the experiment with LS513 cells was 51%.
`CCc1c2c(nc3ccc(OC(=O)N4CCC(N5CCCCC5)CC4)cc13)-c1cc3c(c(=O)n1C2)COC(=O)[C@]3(O)CC` [CPT, Irinotecan HCl]: the “topoisomerase I-DNA complexes signal” value is 3.93 ng or topoisomerase I per ml of DNA in [4] (Time 1 hrs), 4.83 ng or topoisomerase I per ml of DNA in [4] (Time 12 hrs) and 5.37 ng or topoisomerase I per ml of DNA in [4] (Time 48 hrs). Moreover, the Caspase-8 in the experiment with caspase-8 [5] (LS513 Cells) and in the experiment with caspase-8 [5] (SW480 Cells) was 0.11 in each case. Also, the CD95 in [6] and in experiment [8] was 13 each time. Moreover, the Caspase-3 in the experiment on caspase-3 [7] (LS513 Cells) and in the experiment on caspase-3 [7] (SW480 Cells) was 0.12 each time.

B1: anti-FasL antibody NOK1 (antibody, from another filing, V domains shown)
VH: VQLQESGPELVKPGASVKISCKASGYAFSSSWMNWVKQRPGKGLEWIGRIYPGDGDTNDNGKFKGKATLTADKSSSTAYMQLSSLTSEDSAVYFCARSYYYDGSPWFTYWGQGTTVTVSS
VL: DIQMTQSPSSLSASLGDRVTISCRASQDISNYLNWYQQKPDGTVKLLIYYTSRLHSGVPSRFSGSGSGTDYSLTISNLEPEDIATYFCQQYSEFPWTFGGGTKLEIKR
As for B1, in [9], the Fractional Inhibition - Run 1, Supernatant + anti-FasL (supernatant alone 0.36) was found to be 0.15; the Fractional Inhibition - Run 2, Supernatant + anti-FasL (supernatant alone 0.41) is 0.21; the Fractional Inhibition, Sup + TPT + anti-FasL on LS513 cells (Sup + TPT alone 0.84) came to 0.69.

B2: IFN: human recombinant IFN-γ (protein, UniProt P01579 24-161, looked up)
Interferon gamma: QDPYVKEAENLKKYFNAGHSDVADNGTLFLGILKNWKEESDRKIMQSQIVSFYFKLFKNFKDDQSIQKSVETIKEDMNVKFFNSNKKKRDDFEKLTNYSVTDLNVQRKAIHELIQVMAELSPAAKTGKRKRSQMLFRG
Turning to B2, in the experiment with SW480 cells, the “Fractional Inhibition - Run 1” value was 0.01 and the “Fractional Inhibition - Run 2” value is recorded as 0.011.
